Assay results taken from patent US10364263B2, “Cyclic phosphates and cyclic phosphoramidates for the treatment of neurologic disorders” (Retrophin, Inc., priority 2015, dated 2019).
Like-named read-outs stand apart in the source and are kept apart here.

Tests used:
[1] = tested on: PANK2 silenced human neuroblastoma IMR32 cells (PANK2−/−); assay: Coenzyme A assay in PANK2 silenced cells (LC-MS quantification of free CoA); type: cell-based; conditions: compound added twice (24 h + 24 h), relative to 0.1% DMSO controls
In short: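 Free intracellular CoA was measured by positive-mode LC-MS/MS of 20% TFA extracts, taking 2 μl per 10^6 cells as intracellular volume. Cells were IMR32 with stable lentiviral PANK2 knockdown, dosed twice 24 h apart (48 h total, 0.1% DMSO). Output is fold increase over vehicle.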

[2] = Stability in human hepatocytes; type: in vitro ADME; conditions: for half-life at 5 µM: t1/2, Human Hepatocytes; for half-life: 5 μM, 1 million cells/ml, 37° C., human hepatocytes
Procedure: (§1) Stability in hepatocytes for select compounds disclosed in the application was evaluated in two species (mouse and human) according to the following procedure. Compounds and positive control samples were dissolved in 100% DMSO at 5 mM. Cryopreserved hepatocytes were thawed and resuspended in Hepatocyte Basal Medium (HBM-Lonza CC-3199) supplemented with CC-4182 (complete hepatocyte culture medium). Test compounds were diluted into cell suspension (1 million cells/ml) from the stock solutions to have a test compound concentration of 5 μM (0.1% DMSO). Incubation was performed in 24-well plates, at 37° C. in a DUBNOFF water bath, under low shaking. Each compound was tested at 6 time points, in duplicates (0, 15, 30, 60, 120 and 240 min). At each time point, an aliquot of 120 μl was taken and transferred to a 96-well deep plate. The reaction was stopped with the addition of one volume of 100% acetonitrile plus 0.1% formic acid and the appropriate internal standard. Then samples were centrifuged at 1100×g for 30 min at +4° C. and supernatants were transferred to a new 96-deepwell plate. Samples were evaporated under N2 and reconstituted in H2O/ACN 0.1% Formic Acid (98:2). Analysis was performed without a calibration curve (Acquity UPLC-Waters; Sciex API4000). Time 0 was obtained adding acetonitrile before addition of the test compound. […] The half-life (t1/2) expressed in hours is derived using Equation 1 as shown in Example 64.

[3] = Stability in mouse plasma; type: in vitro ADME
In short: (§2)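 Test compound at 3 μM (0.1% DMSO) was incubated in mouse or human plasma at 37 °C and sampled in duplicate at 0, 10, 20, 30, 40 and 60 min. Reactions were stopped with acetonitrile/formic acid containing internal standard. Remaining parent was measured by UPLC-MS/MS without a calibration curve.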

[4] = Stability in mouse hepatocytes; type: in vitro ADME
Procedure: as §1

[5] = Stability in human plasma; type: in vitro ADME; conditions: 37° C.
In short: as §2

[6] = t1/2, Mouse Hepatocytes, Diastereoisomer A
[7] = human, plasma, Diastereoisomer A (upfield shift in 31P NMR), read-out: t1/2, Human Plasma, Diastereoisomer A (converted)
[8] = t1/2, Mouse Hepatocytes, Diastereoisomer B
[9] = human, plasma, Diastereoisomer B, read-out: t1/2, Human Plasma, Diastereoisomer B (converted)

| Compound | PANK2−/− CoA (Fold Increase): fold increase in Coenzyme A (CoA) levels relative to controls [1] [Fold Increase] | half-life at 5 µM ([2]; Diastereoisomer A) [min] | half-life at 3 µM ([3]; mouse, plasma) [min] | half-life at 5 µM [4, 6] [min] | half-life at 3 µM [5, 7] [min] | half-life at 5 µM ([2]; Diastereoisomer B) [min] | t1/2, Mouse Plasma, Diastereoisomer B ([3]; mouse, plasma, 3 µM) [min] | half-life at 5 µM [4, 8] [min] | half-life at 3 µM [5, 9] [min] | half-life ([2]; Diastereoisomer A (upfield shift in 31P NMR), read-out: t1/2, Human Hepatocytes, Diastereoisomer A (converted)) [min] | half-life ([2]; Diastereoisomer B, read-out: t1/2, Human Hepatocytes, Diastereoisomer B (converted)) [min] | half-life at 3 µM ([3]; Diastereoisomer A (upfield shift in 31P NMR), 3 μM, 37° C., mouse plasma, read-out: t1/2, Mouse Plasma, Diastereoisomer A) [min] | t1/2, Mouse Plasma, Diastereoisomer B ([3]; Diastereoisomer B, 3 μM, 37° C., mouse plasma) [min] | half-life at 5 µM ([4]; Diastereoisomer A (upfield shift in 31P NMR), 5 μM, 1 million cells/ml, 37° C., mouse hepatocytes, read-out: t1/2, Mouse Hepatocytes, Diastereoisomer A (converted)) [min] | half-life at 5 µM ([4]; Diastereoisomer B, 5 μM, 1 million cells/ml, 37° C., mouse hepatocytes, read-out: t1/2, Mouse Hepatocytes, Diastereoisomer B (converted)) [min] | half-life at 3 µM ([5]; Diastereoisomer A (upfield shift in 31P NMR), read-out: t1/2, Human Plasma, Diastereoisomer A (converted)) [min] | t1/2, Human Plasma, Diastereoisomer B ([5]; Diastereoisomer B, 3 μM) [min] |
| --- | --- | --- | --- | --- | --- | --- | --- | --- | --- | --- | --- | --- | --- | --- | --- | --- | --- |
| COC(=O)CCNC(=O)[C@@H]1O[P@@](=O)(OCOC(=O)C(C)(C)C)OCC1(C)C (single isomer, unassigned) [Compound No. 90] | 286.0 | < 15 | < 9.6 | < 15 | 45.6 |  |  |  |  |  |  |  |  |  |  |  |  |
| CC(C)(C)C(=O)OCO[P@@]1(=O)OCC(C)(C)[C@H](C(=O)NCCC(=O)OCCS(C)(=O)=O)O1 (single isomer, unassigned) [Compound No. 78] | 120.6 | 26.4 | < 9.6 | < 15 | > 60 | 19.8 | <9.6 | < 15 | < 9.6 |  |  |  |  |  |  |  |  |
| COC(=O)CCNC(=O)[C@@H]1OP(=O)(NCC(=O)OCc2ccccc2)OCC1(C)C (stereo partly drawn) [compound 118, methyl 3-((4R)-2-((2-(benzyloxy)-2-oxoethyl)amino)-5,5-dimethyl-2-oxido-1,3,2-dioxaphosphinane-4-carboxamido) propanoate] | 2.96 |  |  |  |  |  |  |  |  | 25.8 | < 15 | < 9.6 | <9.6 | < 15 | < 15 | > 60 | >60 |
| COC(=O)CCNC(=O)[C@@H]1OP(=O)(OCOC(=O)c2ccc(CN3CCCC3)cc2)OCC1(C)C (stereo partly drawn) [Compound No. 76, (((4R)-4-((3-methoxy-3-oxopropyl)carbamoyl)-5,5-dimethyl-2-oxido-1,3,2-dioxaphosphinan-2-yl)oxy)methyl 4-(pyrrolidin-1-ylmethyl)benzoate] | 79.95 | 31.2 | < 9.6 | < 15 | < 9.6 | < 15 | <9.6 | < 15 | < 9.6 |  |  |  |  |  |  |  |  |
| CCC(CC)C(=O)OCOP1(=O)OCC(C)(C)[C@H](C(=O)NCCC(=O)OC)O1 (stereo partly drawn) [Compound No. 67, (((4R)-4-((3-methoxy-3-oxopropyl)carbamoyl)-5,5-dimethyl-2-oxido-1,3,2-dioxaphosphinan-2-yl)oxy)methyl 2-ethylbutanoate] | 122.4 | < 15 | < 9.6 | < 15 | > 60 | < 15 | <9.6 | < 15 | < 9.6 |  |  |  |  |  |  |  |  |
| COC(=O)CCNC(=O)[C@@H]1OP(=O)(N[C@@H](Cc2cccnc2)C(=O)OC)OCC1(C)C (stereo partly drawn) [compound 25, (2S)-methyl 2-(((4R)-4-((3-methoxy-3-oxopropyl)carbamoyl)-5,5-dimethyl-2-oxido-1,3,2-dioxaphosphinan-2-yl)amino)-3-(pyridin-3-yl)propanoate] | 0.95 | > 240 | < 9.6 | 36 | > 60 |  |  |  |  |  |  |  |  |  |  |  |  |
